{"source": "patent US9943534B2", "about": "“Composition for preventing or treating liver cancer containing ginsenoside F2” (INTELLIGENT SYNTHETIC BIOLOGY CENTER, priority 2016, dated 2018)", "key": {"Hep3B cells": {"tested_on": "Hep3B cells", "assay": "Cell survival rate (EZ-CYTOX), human liver cancer cell line", "format": "cell-based", "details": "10 to 60 μM, 24 hours, FIG. 1a", "method": "(§1) The ginsenoside F2 prepared in Example 1 was treated to Hep3B cells, a human liver cancer cell line, Hepa1-6 cells, a mouse liver cancer cell line, and mouse normal hepatocytes at various concentrations (10 to 60 μM). After 24 hours, the survival rate of the cells was measured using EZ-CYTOX (Daeil Lab Service, Korea), which is used to measure the cell survival rate, according to the experimental method provided by the manufacturer."}, "Hepa1-6 cells": {"tested_on": "Hepa1-6 cells", "assay": "Cell survival rate (EZ-CYTOX), mouse liver cancer cell line", "format": "cell-based", "details": "10 to 60 μM, 24 hours, FIG. 1b", "method": "as §1"}, "mouse normal hepatocytes": {"tested_on": "mouse normal hepatocytes", "assay": "Cell survival rate (EZ-CYTOX), normal hepatocytes", "format": "cell-based", "details": "10 to 60 μM, 24 hours, FIG. 1c", "method": "as §1"}, "[1]": {"tested_on": "human liver cancer cell line (Hep3B)", "assay": "Cell death by phase contrast microscopy and DAPI/TUNEL staining", "format": "cell-based", "details": "10 to 60 μM, 24 hours", "method": "The cell-killing effect of ginsenoside F2 on the human liver cell line (Hep3B) was confirmed using a phase contrast microscope and a fluorescence microscope.\nSpecifically, the ginsenoside F2 prepared in Example 1 was treated to the human liver cancer cell line (Hep3B) at various concentrations (10 to 60 μM), and after 24 hours, the state of the cells was observed under the phase contrast microscope. Further, the cells were stained using DAPI (4′,6-diamidino-2-phenylindole, Vector laboratory, USA) and TUNEL (terminal deoxyribonucleotidyl transferase mediated dUTP nick end labeling, Roche life science, USA). The staining was carried out according to the method provided by the manufacturer, and the degree of staining was observed under the fluorescence microscope."}, "[2]": {"tested_on": "mouse liver cancer cell line (Hepa1-6)", "assay": "Genomic DNA fragmentation by gel electrophoresis", "format": "cell-based", "details": "Hepa1-6, 24 hours, FIG. 3", "method": "The cell-killing effect of ginsenoside F2 on the mouse liver cancer cell line (Hepa1-6) was confirmed by confirming the degree of DNA degradation.\nSpecifically, the ginsenoside F2 prepared in Example 1 was treated to the mouse liver cancer cell line (Hepa1-6) at various concentrations ([…]). After 24 hours, the cells were harvested, and the genomic DNA was extracted using a genomic DNA extraction kit (iNtRON, USA) according to the experimental method provided by the manufacturer, and subsequently, a gel electrophoresis was carried out."}, "[3]": {"tested_on": "liver cancer-induced mice", "assay": "Diethylnitrosamine (DEN)-induced liver cancer formation in mice: size, number, weight of cancer tissues", "format": "in vivo, mouse", "details": "50 mg/kg three times a week for 20 weeks, vs vehicle-treated group", "method": "(§2) Diethylnitrosamine (DEN), a hepatocarcinogen, was injected intraperitoneally into 14-day-old male mice at a concentration of 20 mg/kg to induce the formation of liver cancer. A vehicle (olive oil) or ginsenoside F2 (50 mg/kg) was treated three times a week from 20 weeks of age, and then 20 weeks later, the mice were sacrificed to confirm the inhibition of liver cancer formation.\nThe mice sacrificed in Example 3-1 above were cut open ventrally to remove the liver. Then, the size, number, and weight of the cancer tissues of the vehicle-treated group and the ginsenoside F2-treated group were compared."}, "[4]": {"tested_on": "liver cancer-induced mice", "assay": "Serum ALT and AST in liver cancer-induced mice (VetTEST)", "format": "in vivo, mouse", "details": "50 mg/kg three times a week for 20 weeks, vs vehicle-treated group", "method": "as §2\nBlood was collected from the abdominal aorta of the mice sacrificed in Example 3-1 above and centrifuged at 3,300 rpm for 10 minutes using a centrifuge, and then the serum was isolated only. Subsequently, the alanine aminotransferase (ALT), aspartate aminotransferase (AST) and triglyceride were measured by a VetTEST® (IDEXX, USA) according to the experimental method provided by the manufacturer using a kit provided by IDEXX Laboratories (USA)."}, "[5]": {"tested_on": "liver cancer-induced mice", "assay": "Liver histology (H&E) and flow cytometry of liver immune cells in liver cancer-induced mice", "format": "in vivo, mouse", "details": "vs vehicle-treated group", "method": "as §2\nThe mice sacrificed in Example 3-1 above were cut open ventrally to remove the liver, and then H&E ([…] and eosin) staining was performed to observe the histological changes of the liver.\nIn order to specifically measure the activity of the immune cells, the immune cells were isolated from the removed liver, and the stained cells were analyzed via a flow cytometer (LSRII, BD bioscience) using the markers shown in Table 1."}, "[6]": {"details": "50 mg/kg three times a week for 20 weeks, FIG. 6a"}}, "data": [{"smiles": "CC(C)=CCC[C@](C)(O[C@@H]1O[C@H](CO)[C@@H](O)[C@H](O)[C@H]1O)[C@H]1CC[C@]2(C)[C@@H]1[C@H](O)C[C@@H]1[C@@]3(C)CC[C@H](O[C@@H]4O[C@H](CO)[C@@H](O)[C@H](O)[C@H]4O)C(C)(C)[C@@H]3CC[C@]12C", "note": "[ginsenoside F2]", "values": [{"measurement": "survival rate of human liver cancer cell line (Hep3B)", "setting": "Hep3B cells", "value": "decreased depending on the concentration of ginsenoside F2"}, {"measurement": "survival rate of mouse liver cancer cell line (Hepa1-6)", "setting": "Hepa1-6 cells", "value": "decreased depending on the concentration of ginsenoside F2"}, {"measurement": "survival rate of mouse normal hepatocytes", "setting": "mouse normal hepatocytes", "value": "almost no change was observed"}, {"measurement": "cell death under phase contrast microscope", "setting": "[1]; FIG. 2a", "value": "cell death of human liver cancer cell line (Hep3B) was induced"}, {"measurement": "number of cells stained to DAPI", "setting": "[1]; fluorescence microscope", "value": "no difference"}, {"measurement": "number of cells stained to TUNEL", "setting": "[1]; fluorescence microscope, FIGS. 2a and 2b", "value": "increased depending on the concentration of ginsenoside F2"}, {"measurement": "fragmented genomic DNA", "setting": "[2]", "value": "increased with increasing concentration of ginsenoside F2"}, {"measurement": "body weight", "setting": "[3]", "value": "no difference"}, {"measurement": "number of cancer tissues", "setting": "[3]", "value": "reduced more than twice"}, {"measurement": "size of cancer tissues", "setting": "[3]", "value": "significantly reduced"}, {"measurement": "weight of liver tissues", "setting": "[3]", "value": "reduced"}, {"measurement": "serum ALT value", "setting": "[4]; FIG. 5a", "value": "reduced"}, {"measurement": "serum AST value", "setting": "[4]; FIG. 5b", "value": "reduced"}, {"measurement": "formation of liver cancer (H&E histology)", "setting": "[5]; [6]", "value": "inhibited"}, {"measurement": "infiltration of immune cells near the liver cancer tissues (H&E)", "setting": "[5]; [6]", "value": "increased"}, {"measurement": "number of CD8 T cells in liver", "setting": "[5]; flow cytometry, FIG. 6b", "value": "increase"}, {"measurement": "number of macrophages in liver", "setting": "[5]; flow cytometry, FIG. 6b", "value": "increase"}, {"measurement": "number of natural killer T cells in liver", "setting": "[5]; flow cytometry, FIG. 6b", "value": "increase"}]}]}
